Literature values in US8188245B2, “Enduracidin biosynthetic gene cluster from streptomyces fungicidicus” (priority 2006, dated 2012).

Assays:
[1] = tested on: vancomycin resistant bacteria
[2] = tested on: S. aureus (100 strains, including 40% MRSA); details: 100 strains of S. aureus
[3] = tested on: Gram-positive organisms, including MRSA

Substance: Enduracidin
- Antibacterial activity [1]: active
- Toxicity or side effects (MRSA; in vivo): No toxicity or side effects were reported
- Efficacy in humans (MRSA; urinary tract and skin infections caused by MRSA): effective
- Concentration that no strain was able to survive [2]: 1 µg/mL
- Type of antibacterial effect ([3]; in vitro): bactericidal
- Minimal inhibitory concentrations (MICs) ([3]; wide spectrum of primarily Gram-positive organisms, lowest MICs ("as low as")): ≥ 0.05 µg/mL
- Antibacterial activity ([3]; wide variety of Gram-positive bacteria, including VRE and MRSA): active
